Laboratory results: publication PMC12300041, “Tricyclic Isatin Derivatives as Anti-Inflammatory Compounds with High Kinase Binding Affinity” (Molecules, 2025)

Legend:
Test in all cases: KINOMEscan
Format in all cases: binding
[1] = molecular target: T1, PIP5K1A (Homo sapiens, UniProt Q99755)
T1 construct: purchased Eurofins DiscoverX KINOMEscan
How it was run: (§1)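 Kd determination: 12-pt half-log series, top 33 μM; 1 h binding, RT; unbound kinase pulled down on immobilized ligand, measured by qPCR.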

[2] = molecular target: T2, PHKG2 (Homo sapiens, UniProt P15735)
T2 construct: purchased Eurofins DiscoverX KINOMEscan
How it was run: (§2)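 Quantitative PCR measured kinase retained on an immobilized affinity ligand, i.e. kinase not bound by test compound, after 1 h binding at room temperature. Kd came from 12 half-log concentrations up to 33 μM.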

[3] = molecular target: T3, RPS6KA5 (Kin. Dom.1-N-term.) (Homo sapiens, UniProt O75582)
T3 construct: RPS6KA5 (Kin. Dom.1-N-term.); purchased Eurofins DiscoverX KINOMEscan
How it was run: as §1

[4] = molecular target: T4, ABL1 (F317L)-P (Homo sapiens, UniProt P00519, F317L)
T4 construct: purchased Eurofins DiscoverX KINOMEscan
How it was run: as §1

[5] = molecular target: T5, ACVR2A (Homo sapiens, UniProt P27037)
T5 construct: purchased Eurofins DiscoverX KINOMEscan
How it was run: as §2

[6] = molecular target: T6, MYLK (Homo sapiens, UniProt Q15746)
T6 construct: purchased Eurofins DiscoverX KINOMEscan
How it was run: as §1

[7] = molecular target: T7, MST1 (Homo sapiens, UniProt Q13043)
T7 construct: purchased Eurofins DiscoverX KINOMEscan
T7 sequence (Q13043 whole entry): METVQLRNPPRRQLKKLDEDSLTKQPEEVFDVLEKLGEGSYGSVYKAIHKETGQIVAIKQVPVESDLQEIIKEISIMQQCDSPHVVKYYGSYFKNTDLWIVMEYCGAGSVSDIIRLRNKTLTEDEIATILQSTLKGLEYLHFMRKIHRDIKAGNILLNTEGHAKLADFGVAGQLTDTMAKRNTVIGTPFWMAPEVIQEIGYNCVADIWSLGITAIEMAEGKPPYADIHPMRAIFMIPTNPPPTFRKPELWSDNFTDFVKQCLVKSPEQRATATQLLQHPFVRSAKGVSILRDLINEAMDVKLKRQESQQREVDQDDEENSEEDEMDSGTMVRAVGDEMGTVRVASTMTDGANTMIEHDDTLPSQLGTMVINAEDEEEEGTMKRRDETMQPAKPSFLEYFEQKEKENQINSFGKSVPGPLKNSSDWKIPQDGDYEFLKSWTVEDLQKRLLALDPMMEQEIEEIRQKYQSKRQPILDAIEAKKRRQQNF
How it was run: as §1

[8] = molecular target: T8, BMX (Homo sapiens, UniProt P51813)
T8 construct: purchased Eurofins DiscoverX KINOMEscan
How it was run: as §1

[9] = molecular target: T9, BRSK2 (Homo sapiens, UniProt Q8IWQ3)
T9 construct: purchased Eurofins DiscoverX KINOMEscan
How it was run: as §1

[10] = molecular target: T10, RET (V804L) (Homo sapiens, UniProt P07949, V804L)
T10 construct: purchased Eurofins DiscoverX KINOMEscan
How it was run: as §2

[11] = molecular target: T11, ACVR1B (Homo sapiens, UniProt P36896)
T11 construct: purchased Eurofins DiscoverX KINOMEscan
How it was run: as §2

[12] = molecular target: T12, CHEK1 (Homo sapiens, UniProt O14757)
T12 construct: purchased Eurofins DiscoverX KINOMEscan
How it was run: as §1

[13] = molecular target: T13, KIT (A829P) (Homo sapiens, UniProt P10721, A829P)
T13 construct: purchased Eurofins DiscoverX KINOMEscan
How it was run: as §1

[14] = molecular target: T14, CDK4 (Homo sapiens, UniProt P11802)
T14 construct: purchased Eurofins DiscoverX KINOMEscan
How it was run: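 1 h RT binding → immobilized-ligand capture of free kinase → qPCR quantitation. Kd: 12 half-log points, max 33 μM.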

[15] = molecular target: T15, HIPK4 (Homo sapiens, UniProt Q8NE63)
T15 construct: purchased Eurofins DiscoverX KINOMEscan
How it was run: as §2

[16] = molecular target: T16, ERBB3 (Homo sapiens, UniProt P21860)
T16 construct: purchased Eurofins DiscoverX KINOMEscan
How it was run: as §1

[17] = molecular target: T17, KIT (V559D) (Homo sapiens, UniProt P10721, V559D)
T17 construct: purchased Eurofins DiscoverX KINOMEscan
How it was run: as §1

[18] = molecular target: T18, MAP3K19 (Homo sapiens, UniProt Q56UN5)
T18 construct: purchased Eurofins DiscoverX KINOMEscan
T18 sequence (Q56UN5 whole entry): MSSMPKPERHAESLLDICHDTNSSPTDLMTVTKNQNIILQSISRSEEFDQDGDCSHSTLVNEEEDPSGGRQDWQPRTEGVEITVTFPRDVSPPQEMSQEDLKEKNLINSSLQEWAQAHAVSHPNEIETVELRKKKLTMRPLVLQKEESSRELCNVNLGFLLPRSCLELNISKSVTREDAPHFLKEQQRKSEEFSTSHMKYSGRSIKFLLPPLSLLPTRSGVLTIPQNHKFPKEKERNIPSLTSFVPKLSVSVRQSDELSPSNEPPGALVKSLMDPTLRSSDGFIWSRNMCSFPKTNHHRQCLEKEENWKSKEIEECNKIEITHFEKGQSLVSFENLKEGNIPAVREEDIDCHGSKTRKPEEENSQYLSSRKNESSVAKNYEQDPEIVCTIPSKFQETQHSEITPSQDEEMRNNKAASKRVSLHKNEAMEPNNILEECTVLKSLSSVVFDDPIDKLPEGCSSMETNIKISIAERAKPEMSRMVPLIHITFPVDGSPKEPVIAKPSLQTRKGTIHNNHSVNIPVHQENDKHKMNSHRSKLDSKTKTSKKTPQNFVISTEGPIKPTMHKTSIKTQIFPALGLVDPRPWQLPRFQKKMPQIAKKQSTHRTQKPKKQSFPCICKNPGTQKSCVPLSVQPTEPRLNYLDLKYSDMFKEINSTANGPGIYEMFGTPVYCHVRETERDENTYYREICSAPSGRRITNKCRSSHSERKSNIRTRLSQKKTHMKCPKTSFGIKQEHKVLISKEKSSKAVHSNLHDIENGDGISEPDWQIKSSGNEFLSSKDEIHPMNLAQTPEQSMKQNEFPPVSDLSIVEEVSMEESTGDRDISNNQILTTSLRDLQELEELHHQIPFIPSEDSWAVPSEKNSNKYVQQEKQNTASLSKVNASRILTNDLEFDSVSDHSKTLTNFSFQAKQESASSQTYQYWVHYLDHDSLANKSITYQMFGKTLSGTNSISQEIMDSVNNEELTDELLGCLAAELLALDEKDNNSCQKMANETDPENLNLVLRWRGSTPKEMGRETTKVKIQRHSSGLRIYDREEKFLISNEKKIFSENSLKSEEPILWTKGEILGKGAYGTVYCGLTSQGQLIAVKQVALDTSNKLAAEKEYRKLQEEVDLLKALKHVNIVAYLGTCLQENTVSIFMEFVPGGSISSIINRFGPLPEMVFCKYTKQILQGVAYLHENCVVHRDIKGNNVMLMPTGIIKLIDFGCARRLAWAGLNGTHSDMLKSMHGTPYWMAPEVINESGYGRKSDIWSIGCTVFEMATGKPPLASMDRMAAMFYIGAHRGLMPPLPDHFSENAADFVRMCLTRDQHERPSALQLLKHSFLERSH
How it was run: as §1

[19] = molecular target: T19, PIM3 (Homo sapiens, UniProt Q86V86)
T19 construct: purchased Eurofins DiscoverX KINOMEscan
How it was run: as §1

[20] = molecular target: T20, PRKCH (Homo sapiens, UniProt P24723)
T20 construct: purchased Eurofins DiscoverX KINOMEscan
How it was run: as §2

[21] = molecular target: T21, KIT (Homo sapiens, UniProt P10721)
T21 construct: purchased Eurofins DiscoverX KINOMEscan
How it was run: as §1

[22] = molecular target: T22, BMPR1A (Homo sapiens, UniProt P36894)
T22 construct: purchased Eurofins DiscoverX KINOMEscan
How it was run: as §1

[23] = molecular target: T23, CSNK1A1 (Homo sapiens, UniProt P48729)
T23 construct: purchased Eurofins DiscoverX KINOMEscan
How it was run: as §1

[24] = molecular target: T24, EIF2AK1 (Homo sapiens, UniProt Q9BQI3)
T24 construct: purchased Eurofins DiscoverX KINOMEscan
How it was run: as §1

[25] = molecular target: T25, PIK3CA (H1047Y) (Homo sapiens, UniProt P42336, H1047Y)
T25 construct: purchased Eurofins DiscoverX KINOMEscan
How it was run: as §1

[26] = molecular target: T26, STK36 (Homo sapiens, UniProt Q9NRP7)
T26 construct: purchased Eurofins DiscoverX KINOMEscan
How it was run: as §2

[27] = molecular target: T27, BUB1 (Homo sapiens, UniProt O43683)
T27 construct: purchased Eurofins DiscoverX KINOMEscan
How it was run: as §2

[28] = molecular target: T28, AMPK-α1 (Homo sapiens, UniProt Q13131)
T28 construct: purchased Eurofins DiscoverX KINOMEscan
How it was run: as §2

[29] = molecular target: T29, CDC2L5 (Homo sapiens, UniProt Q14004)
T29 construct: purchased Eurofins DiscoverX KINOMEscan
How it was run: as §1

[30] = molecular target: T30, EPHB6 (Homo sapiens, UniProt O15197)
T30 construct: purchased Eurofins DiscoverX KINOMEscan
How it was run: as §1

[31] = molecular target: T31, BRSK1 (Homo sapiens, UniProt Q8TDC3)
T31 construct: purchased Eurofins DiscoverX KINOMEscan
How it was run: as §1

[32] = molecular target: T32, LIMK2 (Homo sapiens, UniProt P53671)
T32 construct: purchased Eurofins DiscoverX KINOMEscan
T32 sequence (P53671 whole entry): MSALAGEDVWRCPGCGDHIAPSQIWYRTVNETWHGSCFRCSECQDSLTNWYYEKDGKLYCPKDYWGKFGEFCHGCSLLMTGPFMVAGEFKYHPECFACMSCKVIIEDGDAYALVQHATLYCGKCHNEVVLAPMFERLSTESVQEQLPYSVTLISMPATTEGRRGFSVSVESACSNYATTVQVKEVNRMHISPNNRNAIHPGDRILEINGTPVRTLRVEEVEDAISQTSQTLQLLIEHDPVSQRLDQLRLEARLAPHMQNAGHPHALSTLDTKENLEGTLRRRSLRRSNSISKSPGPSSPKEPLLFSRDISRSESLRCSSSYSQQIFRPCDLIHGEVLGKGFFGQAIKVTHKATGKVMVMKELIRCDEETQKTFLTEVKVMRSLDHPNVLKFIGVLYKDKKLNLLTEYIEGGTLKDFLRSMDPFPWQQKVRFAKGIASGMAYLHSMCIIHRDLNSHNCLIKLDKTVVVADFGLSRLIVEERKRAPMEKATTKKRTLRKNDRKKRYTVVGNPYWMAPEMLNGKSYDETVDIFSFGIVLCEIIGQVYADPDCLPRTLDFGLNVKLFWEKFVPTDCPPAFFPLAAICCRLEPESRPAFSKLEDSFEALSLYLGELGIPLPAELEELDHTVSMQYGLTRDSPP
How it was run: as §1

[33] = molecular target: T33, TRPM6 (Homo sapiens, UniProt Q9BX84)
T33 construct: purchased Eurofins DiscoverX KINOMEscan
How it was run: as §1

[34] = molecular target: T34, ABL1 (T315I)-non-P (Homo sapiens, UniProt P00519, T315I)
T34 construct: purchased Eurofins DiscoverX KINOMEscan
How it was run: as §1

[35] = molecular target: T35, MAP3K1 (Homo sapiens, UniProt Q13233)
T35 construct: purchased Eurofins DiscoverX KINOMEscan
T35 sequence (Q13233 whole entry): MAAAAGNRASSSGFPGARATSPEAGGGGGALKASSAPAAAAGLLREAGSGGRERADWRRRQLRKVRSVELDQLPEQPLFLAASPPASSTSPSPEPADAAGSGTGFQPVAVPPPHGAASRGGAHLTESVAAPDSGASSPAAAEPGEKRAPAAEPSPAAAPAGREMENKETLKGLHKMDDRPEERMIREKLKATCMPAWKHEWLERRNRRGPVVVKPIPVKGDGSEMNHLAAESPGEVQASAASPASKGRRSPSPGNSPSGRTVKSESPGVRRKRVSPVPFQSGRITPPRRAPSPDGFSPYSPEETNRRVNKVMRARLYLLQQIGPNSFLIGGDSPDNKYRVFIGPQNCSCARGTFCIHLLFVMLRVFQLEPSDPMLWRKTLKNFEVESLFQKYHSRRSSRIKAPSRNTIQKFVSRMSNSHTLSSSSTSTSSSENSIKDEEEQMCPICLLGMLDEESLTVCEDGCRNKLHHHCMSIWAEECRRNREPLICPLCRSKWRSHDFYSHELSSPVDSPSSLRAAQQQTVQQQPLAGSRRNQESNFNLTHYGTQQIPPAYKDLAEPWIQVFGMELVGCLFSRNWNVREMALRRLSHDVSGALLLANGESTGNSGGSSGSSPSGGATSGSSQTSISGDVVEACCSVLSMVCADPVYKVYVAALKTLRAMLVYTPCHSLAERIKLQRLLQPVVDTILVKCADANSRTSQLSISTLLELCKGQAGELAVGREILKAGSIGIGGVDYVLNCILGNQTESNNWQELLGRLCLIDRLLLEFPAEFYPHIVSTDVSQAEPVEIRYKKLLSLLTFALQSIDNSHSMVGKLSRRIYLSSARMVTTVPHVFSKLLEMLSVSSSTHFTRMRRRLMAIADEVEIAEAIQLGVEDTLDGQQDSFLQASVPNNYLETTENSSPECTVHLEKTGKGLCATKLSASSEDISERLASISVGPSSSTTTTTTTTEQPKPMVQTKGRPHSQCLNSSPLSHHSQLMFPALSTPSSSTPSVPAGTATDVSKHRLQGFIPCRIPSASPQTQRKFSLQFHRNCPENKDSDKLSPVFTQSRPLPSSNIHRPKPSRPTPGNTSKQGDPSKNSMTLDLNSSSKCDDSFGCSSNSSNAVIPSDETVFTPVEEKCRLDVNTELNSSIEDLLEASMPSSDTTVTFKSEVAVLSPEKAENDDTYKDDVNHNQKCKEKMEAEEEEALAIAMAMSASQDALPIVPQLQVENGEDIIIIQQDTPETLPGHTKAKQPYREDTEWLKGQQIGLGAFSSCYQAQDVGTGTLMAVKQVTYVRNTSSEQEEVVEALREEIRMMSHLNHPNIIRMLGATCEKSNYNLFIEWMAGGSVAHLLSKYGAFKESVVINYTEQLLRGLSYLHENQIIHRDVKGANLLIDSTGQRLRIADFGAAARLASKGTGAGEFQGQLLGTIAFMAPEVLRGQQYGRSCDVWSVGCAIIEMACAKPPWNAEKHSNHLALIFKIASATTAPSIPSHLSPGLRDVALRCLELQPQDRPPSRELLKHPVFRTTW
How it was run: as §1

[36] = molecular target: T36, EGFR (G719C) (Homo sapiens, UniProt P00533, G719C)
T36 construct: purchased Eurofins DiscoverX KINOMEscan
How it was run: as §1

[37] = molecular target: T37, SGK (Homo sapiens, UniProt O00141)
T37 construct: purchased Eurofins DiscoverX KINOMEscan
How it was run: as §1

[38] = molecular target: T38, PAK3 (Homo sapiens, UniProt O75914)
T38 construct: purchased Eurofins DiscoverX KINOMEscan
T38 sequence (O75914 whole entry): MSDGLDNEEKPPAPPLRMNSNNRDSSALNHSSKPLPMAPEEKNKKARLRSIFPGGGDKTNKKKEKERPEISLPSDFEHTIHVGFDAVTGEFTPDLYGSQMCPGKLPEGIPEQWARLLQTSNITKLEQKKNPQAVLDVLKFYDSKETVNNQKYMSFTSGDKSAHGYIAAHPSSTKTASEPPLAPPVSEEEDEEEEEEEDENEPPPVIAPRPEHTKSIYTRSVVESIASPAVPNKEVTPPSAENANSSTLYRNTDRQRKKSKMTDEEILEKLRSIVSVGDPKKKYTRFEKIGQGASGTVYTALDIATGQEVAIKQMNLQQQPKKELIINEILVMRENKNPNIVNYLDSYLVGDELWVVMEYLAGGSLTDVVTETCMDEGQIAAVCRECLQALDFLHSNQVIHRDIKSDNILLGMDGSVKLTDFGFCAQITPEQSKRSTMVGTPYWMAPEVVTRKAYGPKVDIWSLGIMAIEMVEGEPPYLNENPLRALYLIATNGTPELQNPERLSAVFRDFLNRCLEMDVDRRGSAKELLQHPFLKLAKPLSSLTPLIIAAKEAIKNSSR
How it was run: as §1

Question: For O=C1Nc2c(cc([N+](=O)[O-])c3c2CCCC3)C1=NO [Compound 5d, 3-(Hydroxyimino)-5-nitro-1,3,6,7,8,9-hexahydro-2H-benzo[g]indol-2-one], which inhibition at 10 µM [1] is on record?
Answer: Its inhibition at 10 µM is 54%.

Question: And the inhibition at 10 µM [2]?
Answer: The inhibition at 10 µM was 45%.

Question: And the inhibition at 10 µM [3]?
Answer: The inhibition at 10 µM was 4%.

Question: What about the inhibition at 10 µM ([4]; first of two lines printed ABL1 (F317L)-P) of the same molecule?
Answer: The inhibition at 10 µM was 23%.

Question: And the inhibition at 10 µM ([4]; second of two lines printed ABL1 (F317L)-P)?
Answer: Its inhibition at 10 µM is 20%.

Question: What about the inhibition at 10 µM [5] of the same molecule?
Answer: Its inhibition at 10 µM is 10%.

Question: What about the inhibition at 10 µM [6] of the same molecule?
Answer: The inhibition at 10 µM was 93.9%.

Question: And the inhibition at 10 µM [7]?
Answer: Its inhibition at 10 µM is 32%.

Question: What about the inhibition at 10 µM [8] of the same molecule?
Answer: The inhibition at 10 µM was 13%.

Question: What about the inhibition at 10 µM [9] of the same molecule?
Answer: The inhibition at 10 µM was 31%.

Question: What about the inhibition at 10 µM [10] of the same molecule?
Answer: The inhibition at 10 µM was 2%.

Question: What about the inhibition at 10 µM [11] of the same molecule?
Answer: Its inhibition at 10 µM is 10%.

Question: What about the inhibition at 10 µM [12] of the same molecule?
Answer: The inhibition at 10 µM was 2%.

Question: What about the inhibition at 10 µM [13] of the same molecule?
Answer: Its inhibition at 10 µM is 0%.

Question: What about the inhibition at 10 µM [14] of the same molecule?
Answer: The inhibition at 10 µM was 7%.

Question: And the inhibition at 10 µM [15]?
Answer: The inhibition at 10 µM was 63%.

Question: What about the inhibition at 10 µM [16] of the same molecule?
Answer: Its inhibition at 10 µM is 0%.

Question: What about the inhibition at 10 µM [17] of the same molecule?
Answer: Its inhibition at 10 µM is 0%.

Question: And the inhibition at 10 µM [18]?
Answer: Its inhibition at 10 µM is 95.8%.

Question: And the inhibition at 10 µM [19]?
Answer: Its inhibition at 10 µM is 95.8%.

Question: And the inhibition at 10 µM [20]?
Answer: Its inhibition at 10 µM is 0%.

Question: And the inhibition at 10 µM [21]?
Answer: The inhibition at 10 µM was 0%.

Question: What about the inhibition at 10 µM [22] of the same molecule?
Answer: Its inhibition at 10 µM is 18%.

Question: What about the inhibition at 10 µM [23] of the same molecule?
Answer: Its inhibition at 10 µM is 93.5%.

Question: What about the inhibition at 10 µM [24] of the same molecule?
Answer: Its inhibition at 10 µM is 40%.

Question: What about the inhibition at 10 µM [25] of the same molecule?
Answer: Its inhibition at 10 µM is 36%.

Question: What about the inhibition at 10 µM [26] of the same molecule?
Answer: The inhibition at 10 µM was 10%.

Question: And the inhibition at 10 µM [27]?
Answer: The inhibition at 10 µM was 95.6%.

Question: What about the inhibition at 10 µM [28] of the same molecule?
Answer: Its inhibition at 10 µM is 28%.

Question: What about the inhibition at 10 µM [29] of the same molecule?
Answer: Its inhibition at 10 µM is 13%.

Question: And the inhibition at 10 µM [30]?
Answer: Its inhibition at 10 µM is 80%.

Question: What about the inhibition at 10 µM [31] of the same molecule?
Answer: The inhibition at 10 µM was 36%.

Question: What about the inhibition at 10 µM [32] of the same molecule?
Answer: Its inhibition at 10 µM is 0%.

Question: What about the inhibition at 10 µM [33] of the same molecule?
Answer: Its inhibition at 10 µM is 8%.

Question: What about the inhibition at 10 µM [34] of the same molecule?
Answer: The inhibition at 10 µM was 1%.

Question: And the inhibition at 10 µM [35]?
Answer: Its inhibition at 10 µM is 6%.

Question: What about the inhibition at 10 µM [36] of the same molecule?
Answer: The inhibition at 10 µM was 24%.

Question: And the inhibition at 10 µM [37]?
Answer: Its inhibition at 10 µM is 91.1%.

Question: And the inhibition at 10 µM [38]?
Answer: Its inhibition at 10 µM is 67%.
